From ChEMBL document CHEMBL3217697, “The discovery of a novel prototype small molecule TLR7 agonist for the treatment of hepatitis C virus infection” (Medchemcomm, 2011) come the findings set out here.

A short description of data set [1]: Clearance in rat at 1 mg/kg, iv. In kind it is ADME, organism-based. The arrangement: dose 1 mg/kg, route intravenous. The following applies: in vivo.
The nature of data set [2]: Terminal half life in rat at 1 mg/kg, iv. The following applies: in vivo, read-out: beta t1/2 (converted). The arrangement: dose 1 mg/kg, route intravenous. In kind it is ADME, organism-based.
For data set [3], the target named is Adenosine receptor A2a (Homo sapiens) (UniProt P29274). As to the kind of experiment: Inhibition of adenosine A2A receptor (unknown origin) at 10 uM relative to control.
The nature of data set [4]: Volume of distribution at steady state in dog at 0.1 mg/kg, iv. Type of data set: ADME, organism-based, Canis lupus familiaris. The arrangement: dose 0.1 mg/kg, route intravenous. As to conditions: in vivo, read-out: Vdss.
For a further data set, the system named is Mus musculus. As to the kind of experiment: Stimulation of IFN-alpha production in po dosed CD-1 mouse. Type of data set: functional, organism-based.
Data set [5] in a line: Volume of distribution at steady state in rat at 1 mg/kg, iv. Type of data set: ADME, organism-based. The arrangement: dose 1 mg/kg, route intravenous. As to conditions: in vivo, read-out: Vdss.
Data set [6] is described as follows: Intrinsic clearance in human liver microsomes. Type of data set: ADME. As to conditions: read-out: CLH. (Liver microsomes are a subcellular fraction often used to study metabolism.)
Data set [7] can be described thus: Terminal half life in dog at 0.1 mg/kg, iv. The following applies: in vivo, read-out: beta t1/2 (converted). Type of data set: ADME, organism-based, Canis lupus familiaris. The arrangement: dose 0.1 mg/kg, route intravenous.
A short description of data set [8]: Oral bioavailability in rat at 2 mg/kg administered as suspension. The following applies: in vivo. Type of data set: ADME, organism-based.
Data set [9] concerns the target Acetylcholinesterase (Homo sapiens) (UniProt P22303). As to the kind of experiment: Inhibition of human acetylcholinesterase at 10 uM relative to control.
Data set [10] can be described thus: Clearance in dog at 0.1 mg/kg, iv. As to conditions: in vivo. In kind it is ADME, organism-based, Canis lupus familiaris. The arrangement: dose 0.1 mg/kg, route intravenous.
The nature of data set [11]: Oral bioavailability in rat at 2 mg/kg administered as nano suspension. In kind it is ADME, organism-based. As to conditions: in vivo.
For data set [12], the target named is T1, Adenosine receptor A1 (Homo sapiens) (UniProt P30542).
T1 sequence (whole entry): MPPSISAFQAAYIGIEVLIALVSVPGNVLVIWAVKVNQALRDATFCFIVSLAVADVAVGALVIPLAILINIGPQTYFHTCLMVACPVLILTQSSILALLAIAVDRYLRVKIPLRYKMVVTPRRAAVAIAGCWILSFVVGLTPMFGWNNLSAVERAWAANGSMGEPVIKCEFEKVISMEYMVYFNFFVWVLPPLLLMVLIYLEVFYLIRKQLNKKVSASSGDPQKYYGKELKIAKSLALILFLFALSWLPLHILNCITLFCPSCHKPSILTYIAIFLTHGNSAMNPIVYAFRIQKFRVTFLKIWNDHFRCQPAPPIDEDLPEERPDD
As to the kind of experiment: Inhibition of adenosine A1 receptor (unknown origin) at 10 uM relative to control.

The nature of data set [13]: Oral bioavailability in rat at 2 mg/kg administered as solution. In kind it is ADME, organism-based. The following applies: in vivo.
Data set [14] in a line: Octanol-neutral aqueous buffer partition coefficient, log D of the compound at pH 7.4. In kind it is physicochemical.
The next data set relates to Hepatitis C virus. As to the kind of experiment: Antiviral activity against Hepatitis C virus infected in human HuH7 cells. Type of data set: functional, organism-based. The following applies: Hepacivirus hominis; Huh-7.

The source made the active and inactive calls. The rule behind the calls is not given here. Bounds are passed on as bounds.

Sequence of Adenosine receptor A2a (Homo sapiens) (P29274 whole entry): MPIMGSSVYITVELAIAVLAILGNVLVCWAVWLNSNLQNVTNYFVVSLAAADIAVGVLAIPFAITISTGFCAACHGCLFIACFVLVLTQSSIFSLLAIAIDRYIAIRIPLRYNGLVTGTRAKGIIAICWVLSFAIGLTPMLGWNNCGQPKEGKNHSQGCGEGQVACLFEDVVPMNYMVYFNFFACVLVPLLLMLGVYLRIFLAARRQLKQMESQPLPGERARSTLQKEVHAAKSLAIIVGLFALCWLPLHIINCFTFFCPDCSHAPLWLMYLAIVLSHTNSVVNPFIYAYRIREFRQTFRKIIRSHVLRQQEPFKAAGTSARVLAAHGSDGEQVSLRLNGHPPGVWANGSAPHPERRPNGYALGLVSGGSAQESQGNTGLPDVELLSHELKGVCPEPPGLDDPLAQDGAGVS
Sequence of Acetylcholinesterase (Homo sapiens) (P22303 whole entry): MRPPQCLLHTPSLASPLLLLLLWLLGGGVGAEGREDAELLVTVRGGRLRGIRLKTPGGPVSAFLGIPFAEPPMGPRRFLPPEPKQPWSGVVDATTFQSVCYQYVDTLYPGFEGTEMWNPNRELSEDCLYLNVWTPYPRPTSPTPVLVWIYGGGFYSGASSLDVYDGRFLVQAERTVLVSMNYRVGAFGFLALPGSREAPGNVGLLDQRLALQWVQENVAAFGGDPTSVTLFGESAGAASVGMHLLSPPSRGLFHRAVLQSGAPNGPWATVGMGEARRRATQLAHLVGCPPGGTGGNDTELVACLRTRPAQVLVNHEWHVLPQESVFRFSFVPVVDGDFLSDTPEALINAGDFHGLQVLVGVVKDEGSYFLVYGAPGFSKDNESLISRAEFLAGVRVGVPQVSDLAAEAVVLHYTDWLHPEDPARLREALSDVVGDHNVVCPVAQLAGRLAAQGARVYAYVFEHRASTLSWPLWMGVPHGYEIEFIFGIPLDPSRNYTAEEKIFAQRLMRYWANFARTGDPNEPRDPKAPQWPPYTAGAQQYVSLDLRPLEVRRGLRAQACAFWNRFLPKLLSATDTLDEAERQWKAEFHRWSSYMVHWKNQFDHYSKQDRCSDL

Broadly, the clearance is the volume of plasma or blood freed of the substance per unit of time. For orientation: inhibition means the percentage by which the read-out fell short of the control. A high value points to a strong effect. In general, EC50 refers to the concentration needed to bring the measured effect to its halfway point. For orientation: bioavailability means the share of a dose that reaches the circulation, judged against a reference dose that is usually intravenous. Low values mean little systemic uptake, high ones much systemic uptake. `Nc1nc(C(F)(F)F)cc2c1[nH]c(=O)n2Cc1ccccc1`: the figures for the clearance in data set [1] and in data set [10] were 33 mL/min/kg and 6 mL/min/kg, respectively. In addition, the values for the half-life in [2] and in data set [7] were 1 h and 5.5 h, respectively. Moreover, the figures for the inhibition in data set [3], in data set [9] and in data set [12] were 32%, 70% and 29%, respectively. Moreover, the figures for the Vd in data set [4] and in [5] were 2.3 L/kg and 2.7 L/kg, respectively. Further, in the data set with Mus musculus, the concentration giving a half-maximal response (EC50) was determined as 0.058 µM. Besides, the microsomal CLint in data set [6] was less than 7 µL/min/mg. Besides, the results for the bioavailability in [8], in data set [11] and in data set [13] were 69%, 71% and 48%, respectively.
The term logD denotes the decadic logarithm of the distribution of all forms, ionised or not, between an organic phase and buffer at a given pH. For `Nc1nccc2c1[nH]c(=O)n2Cc1ccccc1`, the microsomal CLint in data set [6] was less than 7 µL/min/mg. For the same molecule, the log distribution coefficient (logD) in data set [14] worked out at 1.9.
The matching figures for `CC(C)c1cc2c([nH]c(=O)n2Cc2ccccc2)c(N)n1`: less than 7 µL/min/mg and 3.1.
The matching figures for `O=c1[nH]c2cnc(C(F)(F)F)cc2n1Cc1ccccc1`: less than 7 µL/min/mg and 3.1.
As to `COCCNc1nc(N)c2c(O)nn(Cc3ccccc3)c2n1`, the outcome in the data set with Hepatitis C virus was inactive.
In the case of `Cc1nc(N)c2[nH]c(=O)n(Cc3ccccc3)c2c1C`, the microsomal CLint in [6] was less than 7 µL/min/mg. In addition, the outcome in the data set with Hepatitis C virus was inactive. In addition, the logD in data set [14] came to 2.6.
The like results for `Cc1nc(N)c2c(n1)N(Cc1ccccc1)C(=O)NC2` were, in that order, 16 µL/min/mg, “inactive” and 1.6.
The matching figures for `Nc1cc(C2CC2)nc2c(Cc3ccccc3)c(=O)[nH]n12`: less than 7 µL/min/mg, “inactive” and 1.6.
The matching figures for `Cc1cc2c([nH]c(=O)n2Cc2ccccc2)c(N)n1`: less than 7 µL/min/mg, “inactive” and 2.3.
With `CCCc1cc2c([nH]c(=O)n2Cc2ccccc2)c(N)n1`, the microsomal CLint in data set [6] was 14 µL/min/mg. The pH-dependent lipophilicity (logD) in data set [14] turned out to be 3.1.
Regarding `Cc1nc(N)c2c(n1)N(Cc1ccccc1)C(=O)C2`, the microsomal CLint in data set [6] was less than 7 µL/min/mg. In the data set with Hepatitis C virus, the outcome was inactive. In data set [14], this molecule registered a logD of 2.
For the molecule `Cc1cc(N)c2[nH]c(=O)n(Cc3ccccc3)c2n1`, in data set [6], the microsomal CLint was less than 7 µL/min/mg. Further, the outcome in the data set with Hepatitis C virus was inactive. In data set [14], this molecule displayed a pH-dependent lipophilicity (logD) of 2.3.
With `Cc1nc(N)c2sc(=O)n(Cc3ccccc3)c2n1`, the result in the data set on Hepatitis C virus was inactive.
Consider `O=c1[nH]n2c(O)nc(C3CC3)cc2c1Cc1ccccc1`, for which the microsomal CLint in data set [6] was less than 7 µL/min/mg. Further, in the data set with Hepatitis C virus, the outcome was inactive. Moreover, the pH-dependent lipophilicity (logD) in data set [14] came out at 1.7.
In the case of `Cc1nc(N)c2nc(O)n(Cc3ccccc3)c2n1`, in data set [6], the microsomal CLint was less than 7 µL/min/mg. In the data set with Hepatitis C virus, the result was inactive.
